Measured values published in patent US20250276968A1, “8- AND 6-SUBSTITUTED PYRIDOPYRIMIDINE DERIVATIVES AS KRAS INHIBITORS” (Beta Pharma, Inc., priority 2022, published 2025).

Assay: Pharmacokinetics in male CD-1 mice (IV and PO dosing)
Assay type: in vivo
Conditions: mean plasma
Description: The pharmacokinetic profile of the Example 1 (compound 1a) was determined in male CD-1 mice by WuXi AppTec Co., Ltd., 1318 Wuzhong Avenue, Wuzhong District, Suzhou, China, 215104.

For `C=C(F)C(=O)N1CCN(c2nc(OC[C@@H]3CCCN3C)nc3cc(-c4cccc5cccc(Cl)c45)cnc23)C[C@@H]1CC#N` [Example 1, 2-((S)-4-(7-(8-Chloronaphthalen-1-yl)-2-(((S)-1-methylpyrrolidin-2-yl)methoxy)pyrido[3,2-d]pyrimidin-4-yl)-1-(2-fluoroacryloyl)piperazin-2-yl)acetonitrile], which AUCExtra (3 mg/kg IV) is on record?
Its AUCExtra is 9.23%.

And the AUMCExtra (3 mg/kg IV)?
The AUMCExtra was 35.2%.

What about the Tlast (3 mg/kg IV) of the same molecule?
The Tlast was 8.00 h.

And the AUCExtra (30 mg/kg PO)?
Its AUCExtra is 17.1%.

And the AUMCExtra (30 mg/kg PO)?
The AUMCExtra was 43.8%.

And the Tlast (30 mg/kg PO)?
The Tlast was 8.00 h.
